Source: US10294217B2, “Fluoroindole derivatives as muscarinic M1 receptor positive allosteric modulators” (Suven Life Sciences Limited, priority 2015, dated 2019)
Read-outs that look alike come from different tables or passages of the source.

Tests used:
[1] = Protein binding assay (HT dialysis), rat matrices; format: in vitro ADME; details: Mean ± SEM
Procedure: Unbound fractions of new chemical entities in plasma, brain homogenate and liver microsomes were determined using high-throughput dialysis (HT dialysis). Briefly, dialysis membranes were soaked in deionized water for 20 minutes and then in deionized water with 30% ethanol for 15 minutes and finally in phosphate buffer until use. Membranes were rinsed in phosphate buffer before assembling. The membranes were layered between teflon bars of dialysis assembly. Stock solutions of test compounds were prepared at 10 mM in DMSO, diluted to 1 mM in acetonitrile and further diluted to 100 μM in mixture of water and acetonitrile (1:1 v/v). Human plasma (pool of 3) was prepared from human blood (3 donors) by centrifuging at 4000 rpm for 10 min at 4° C. Rat and dog blood were obtained on the day of the study and centrifuged to obtain plasma. Rat brains were isolated, cleaned and homogenized with 2 volumes of buffer (3 fold dilution). Liver microsomes were prepared at 0.5 mg/mL in phosphate buffer (100 mM, pH 7.4). The dialysate chambers were loaded with 150 μL of 100 mM phosphate buffer (pH 7.4) in triplicates. The matrix chambers were loaded with 150 μL of the plasma or brain homogenate or microsomal suspension spiked with test compounds at a final concentration of 1 μM. 50 μL of the sample was removed from both the chambers at 0 h. The plate was sealed and incubated at 37° C. for 6 h at 100 rpm. After 6 h, 50 μL of the sample was removed from both the chambers. Equal volumes of buffer or human plasma/microsomal suspension were added to the plasma/microsomal and buffer samples respectively to create identical sample matrices for analysis. The samples were precipitated with 150 μL of acetonitrile containing fluoxetine as an internal standard. All the samples were centrifuged at 10000 rpm for 10 minutes at 4° C.

[2] = biological target: human Muscarinic M1 receptor (Homo sapiens (Human), UniProt P11229); assay: Allosteric potency EC50 for muscarinic M1 receptor (CHO cells, pCRE-Luc reporter); format: cell-based; details: luciferase activity, 4 hours
Procedure: Determination of Allosteric Potency EC50 Values for Muscarinic M1 Receptor:
A stable CHO cell line expressing recombinant human Muscarinic M1 receptor and pCRE-Luc reporter system was used for cell-based assay. The assay offers a non-radioactive based approach to determine binding of a compound to GPCRs. In this specific assay, the level of intracellular cyclic AMP which is modulated by activation or inhibition of the receptor is measured. The recombinant cells harbor luciferase reporter gene under the control of cAMP response element.
The above cells were grown in 96 well clear bottom white plates in Hams F12 medium containing 10% fetal bovine serum (FBS). Prior to the addition of compounds or standard agonist, cells were serum starved overnight. Increasing concentrations of test compounds were added along with EC20 of acetylcholine in OptiMEM medium to the cells. The incubation was continued at 37° C. in CO2 incubator for 4 hours. Medium was removed and cells were washed with phosphate buffered saline. The cells were lysed and luciferase activity was measured in a Luminometer. Luminescence units were plotted against the compound concentrations using Graphpad software. EC50 values of the compounds were defined as the concentration required in stimulating the luciferase activity by 50% in presence of EC20 of acetylcholine and the results are provided in table 1.

[3] = system: sAPPα; assay: Estimation of cortical sAPPα levels in rat brain (ELISA); format: in vivo, Male Wistar rats; details: i.p.; for sAPPα levels: cortex, 60 minutes after treatment, mean ± SEM (n = 5/group); for Inference: cortical sAPPα levels, 1.0-10.0 mg/kg
Procedure: Estimation of Cortical sAPPα Levels in Rat Brain
Male Wistar rats (250±45 grams) were randomly divided into different treatment groups (n=5 per group). Control group of rats were administered with intraperitoneal (i.p.) injection of vehicle (99.75% of 0.25% hydroxyethylcellulose HHX+0.25% tween 80 for examples 8 and 22; 5% Pharmasolve+45% propylene glycol+50% polyethylene glycol-400 for example 1). Rats in treatment groups were allocated to one dose of test compound and administered with a single intraperitoneal injection of test compound (dose volume of 2 mL/kg). Rats were sacrificed by cervical dislocation at 60 minutes after treatment. Brains were quickly isolated and the cortex was dissected out at −20° C. The cortex was immediately kept on a dry ice and weighed before being stored at −80° C. until quantification of sAPPα using Enzyme-linked immunosorbent assay (ELISA).
• 1. Protease inhibitor cocktail tablets (complete mini, Make-Roche; 1 tablet for 8 mL) were added to the Tris Buffer Saline (TBS) prior to using the buffer for tissue processing. • 2. Cortical tissues were thawed and homogenized in five volumes of TBS and the solution was centrifuged at 15,000 rpm at 4° C. for 90 minutes. • 3. The supernatant was discarded and homogenized in five volumes of TBS. Samples were centrifuged at 15,000 rpm at 4° C. for 30 minutes. • 4. Supernatant was discarded and precipitate was sonicated in ten volumes of 50 mM Tris buffer (pH: 7.6) containing 6 M of Guanidine-HCl. Sonication was repeated four times with duration of five seconds every time. • 5. Resulting mixture was incubated at the room temperature for 30 minutes and centrifuged at 15,000 rpm at 4° C. for 30 minutes. Supernatant was diluted 100 times with EIA buffer prior to addition in the pre-coated ELISA plates. Measurement of sAPPα by ELISA Kit:
To investigate the role of an acute treatment of test compound on sAPPα levels, the expression of this protein was measured in samples obtained from brain homogenates of treated and untreated rats by employing ELISA assay. The entire procedure was followed as described in the ELISA kit manual (Mouse/Rat sAPPα (highly sensitive) assay kit, Catalog Number: JP27419, Immuno-Biological Laboratories Co. Ltd, Hamburg, Germany).
Statistical analyses were performed using the Graph Pad Prism (Version 4). Results are expressed as Mean±SEM levels of sAPPα expressed as percentage of control values obtained from rats treated with vehicle. Statistical significance after treatment was assessed using One-Way ANOVA followed by Dunnett's post test and the significance level was set below p value less than 0.05 and the results are tabulated in table 7.

[4] = pH 7.4, Rat brain homogenate, 37° C., n = 3, read-out: Fu Brain
[5] = pH 7.4, Rat liver microsomes 0.5 mg/mL, n = 3, read-out: Fu Microsomes
[6] = pH 7.4, Rat plasma, 37° C., n = 3, read-out: Fu Plasma
[7] = in presence of EC20 of acetylcholine, read-out: hM1 PAM EC50

O=C(N[C@H]1CCCC[C@@H]1O)c1cn(Cc2ccnc(F)c2)c2cccc(F)c12 [Example 7, N-[(1S,2S)-2-Hydroxycyclohexyl]-1-(2-fluoropyridin-4-ylmethyl)-4-fluoro-1H-indole-3-carboxamide]
fraction unbound at 6 h, 1 μM [1, 4]: 0.06 ± 0.004 | fraction unbound at 6 h, 1 μM [1, 5]: 0.8 ± 0.04 | fraction unbound at 6 h, 1 μM [1, 6]: 0.2 ± 0.02 | EC50 [2, 7]: 1.36 µM

Cl.O=C(N[C@H]1CCNC[C@H]1F)c1cn(Cc2ccnc(F)c2)c2c(F)ccc(F)c12 (single isomer, unassigned; isomer-i) [Example 22, Cis-N-(3-Fluoropiperidin-4-yl)-1-(2-fluoropyridin-4-ylmethyl)-4,7-difluoro-1H-indole-3-carboxamide hydrochloride (Isomer-I)]
fraction unbound at 6 h, 1 μM [1, 4]: 0.067 ± 0.002 | fraction unbound at 6 h, 1 μM [1, 5]: 0.902 ± 0.006 | fraction unbound at 6 h, 1 μM [1, 6]: 0.315 ± 0.03 | EC50 ([2]; hM1 PAM EC50, in presence of EC20 of acetylcholine): 1.49 µM | sAPPα levels ([3]; 1.0 mg/kg): 143 ± 14 % of vehicle | sAPPα levels ([3]; 3.0 mg/kg): 164 ± 12 % of vehicle | sAPPα levels ([3]; 10.0 mg/kg): 176 ± 10 % of vehicle | Inference [3]: Active

Cn1cc(Cn2cc(C(=O)N[C@H]3CCCC[C@@H]3O)c3c(F)ccc(F)c32)cn1 [Example 5, N-[(1S,2S)-2-Hydroxycyclohexyl]-1-(1-methyl-1H-pyrazol-4-ylmethyl)-4,7-difluoro-1H-indole-3-carboxamide]
fraction unbound at 6 h, 1 μM [1, 4]: 0.128 ± 0.01 | fraction unbound at 6 h, 1 μM [1, 5]: 0.779 ± 0.01 | fraction unbound at 6 h, 1 μM [1, 6]: 0.21 ± 0.01

O=C(N[C@H]1CCCC[C@@H]1O)c1cn(Cc2ccnc(Cl)c2)c2cccc(F)c12 [Example 2, N-[(1S,2S)-2-Hydroxycyclohexyl]-1-(2-chloropyridin-4-ylmethyl)-4-fluoro-1H-indole-3-carboxamide]
fraction unbound at 6 h, 1 μM [1, 4]: 0.015 ± 0.001 | fraction unbound at 6 h, 1 μM [1, 5]: 0.679 ± 0.081 | fraction unbound at 6 h, 1 μM [1, 6]: 0.068 ± 0.002 | EC50 [2, 7]: 0.681 µM

O=C(N[C@H]1CCCC[C@@H]1O)c1cn(Cc2ccnc(F)c2)c2c(F)ccc(F)c12 [Example 8, N-[(1S,2S)-2-Hydroxycyclohexyl]-1-(2-fluoropyridin-4-ylmethyl)-4,7-difluoro-1H-indole-3-carboxamide]
fraction unbound at 6 h, 1 μM [1, 4]: 0.0348 ± 0.0001 | fraction unbound at 6 h, 1 μM [1, 5]: 0.606 ± 0.008 | fraction unbound at 6 h, 1 μM [1, 6]: 0.089 ± 0.01 | EC50 [2, 7]: 0.192 µM | sAPPα levels ([3]; 1.0 mg/kg): 120 ± 17 % of vehicle | sAPPα levels ([3]; 3.0 mg/kg): 137 ± 14 % of vehicle | sAPPα levels ([3]; 10.0 mg/kg): 173 ± 10 % of vehicle | Inference [3]: Active

Cn1cc(Cn2cc(C(=O)N[C@H]3CCCC[C@@H]3O)c3c(F)cccc32)cn1 [Example 1, N-[(1S,2S)-2-Hydroxycyclohexyl]-1-(1-methyl-1H-pyrazol-4-ylmethyl)-4-fluoro-1H-indole-3-carboxamide]
fraction unbound at 6 h, 1 μM [1, 4]: 0.166 ± 0.01 | fraction unbound at 6 h, 1 μM [1, 5]: 0.836 ± 0.04 | fraction unbound at 6 h, 1 μM [1, 6]: 0.267 ± 0.03 | EC50 [2, 7]: 1.26 µM | sAPPα levels ([3]; 1.0 mg/kg): 155 ± 6 % of vehicle | sAPPα levels ([3]; 3.0 mg/kg): 153 ± 7 % of vehicle | sAPPα levels ([3]; 10.0 mg/kg): 142 ± 6 % of vehicle | Inference [3]: Active
